Test results as given in US20020110838A1, “Methods for assessing muscle protein wasting and therapeutics therefor” (priority 2000, published 2002).
“Also recorded” adds a separate entry of the source. Where a SMILES comes first, the peptide text is derived from it. The star is where a group is joined. Cbz = O=C(OCc1ccccc1)*

Key:
14 kDa actin fragment [1] = test: Actin cleavage in L6 cell extracts incubated at 37° C. (immunoblot of 14 kDa actin fragment); format: biochemical, rat
Method: The cell extracts were incubated at 37° C. for various times before proteins were separated and subjected to Western blot analysis using commercially available, affinity-purified, polyclonal antibodies directed against the carboxy-terminus of actin.
To support this conclusion, we incubated lysates of L6 muscle cells at 37° C. with recombinant caspase 3 and then used Western blotting and detected the appearance of the actin fragment.
To test for involvement of the proteasome, we added MG132, an inhibitor of proteasome activity (ProScript, Inc. Cambridge, Mass.), and ATP to cell extracts before the 3 hr incubation at 37° C..
L6 muscles cells were washed and collected in ice cold PBS. Cells were swelled in hypotonic buffer (5 mM Tris pH 8.0, 1 mM 2-mercaptoethanol, 1% glycerol, 1 mM EDTA, 1 mM EGTA containing 0.1 mM phenylmethanesulfonyl fluoride (PMSF), leupeptin (5 μg/ml) and aprotinin (5 μg/ml) on ice for 30 minutes, and the cells were then gently homogenized with twenty strokes of a dounce homogenizer, with the materials being kept on ice. Homogenates were centrifuged at 3500 rpm (about 2000×g) for 10 minutes to remove nuclei and cell debris.
To assess for proteolytic cleavage of actin, extracts (20 μg of total protein) were incubated in 20 μl reaction volumes containing 25 mM Hepes (pH 7.5), 5 mM EDTA, 5 mM DTT for 3 h at 37° C. Reactions were terminated by adding Laemmli sample buffer, proteins were separated by SDS-PAGE, and immunoblot detection of actin fragments was carried out with an anti-actin antibody (Sigma).
The proteins were then transferred to ECL hybond membranes, and blots were incubated with anti-actin antibodies (1:500 dilution) in 5% milk in TTBS for 2 hours at 37° C. Bound primary antibodies were detected with goat anti-rabbit IgG antibody conjugated with HRRP and analyzed with ECL Detection Kit.

14 kDa actin fragment [2] = test: 14 kDa actin peptide in intact L6 cells, measured after lysis; format: cell-based, rat; set-up: 14 kDa actin peptide in intact L6 cells activated with staurosporine and treated with proteasome inhibitor: dose or concentration left out as unconfirmed
Method: Actin cleavage was measured in lysates immediately after lysis.
This fragment (and others) are then rapidly degraded by the ubiquitin-proteasome system. […] The cells were then lysed and tested for the presence of the 14 kDa actin peptide.

L6 muscle cells [3] = test: Apoptosis by Death ELISA / DNA fragmentation in L6 muscle cells; format: cell-based, rat; conditions: cultured L6 muscle cells, Death ELISA assay
caspase 3 = test: Caspase 3 activation in L6 muscle cells (immunoblot); format: cell-based, rat; conditions: FIG. 4
Excerpt: The caspase-specific proteins were separated by SDS-PAGE and visualized by immunoblotting with polyclonal antibodies prepared in response to the N-terminus of caspase 3.
Subsequently, proteins were separated and subjected to Western blot analysis using affinity-purified, polyclonal antibodies against the carboxy-terminus of actin (Sigma St. Louis, Mo.).

L6 muscle cells [4] = test: Degradation of endogenous proteins in cell extracts (release of free tyrosine); format: cell-based, rat; conditions: 50 nM staurosporine 3 h; extracts 37° C. 3 h; exogenous ATP added
Method: L6 muscle cells were treated as marked, and lysates were incubated at 37° C. for 3 hours in the presence or absence of ATP (2 mM). Degradation of endogenous protein was monitored by measuring release of acid-soluble tyrosine from cell protein.
With this method, protein degradation in extracts of control cells was slightly less than that in extracts from staurosporine-treated cells. However, the 3 hour incubation at 37° C. could limit ATP and impair activity of the ubiquitin-proteasome system.
Protein degradation in cell extracts was assessed by measuring the net release of free tyrosine because muscles neither synthesizes nor degrades this amino acid (18,19). For 3 hours, 50 μg of cell extract proteins were incubated at 37° C. in 0.1 ml of reaction buffer (20 mM Tris (pH 7.6), 2 mM DTT, 10 mM MgCl2, 100 mM KCl, 5% glycerol) with or without 2 MM ATP.
Trichloroacetic acid (10% final concentration) was added and the amount of free tyrosine released from proteins was measured spectrofluorometrically. Alternatively, total cell protein can be labeled by growth in the presence of one or more radioactive amino acids, e.g., ^14C-labeled or ^3H-labeled, and solubilization of radioactive label can be measured with the use of liquid scintillation counting.

epitrochlearis muscles = test: Protein degradation in incubated epitrochlearis muscles; set-up: species or system rat; conditions: epitrochlearis muscles in Krebs-Henseleit bicarbonate buffer with vs without inhibitor
Method: Rats were treated with streptozotocin and compared to pair-fed, rats injected with saline as described (4,26). Crude muscle lysates were isolated from acutely diabetic and control rats and examined for the presence of the 14 kDa actin fragment. A significant amount of this actin fragment was present in the muscle of diabetic rats compared to results from control rats. Finally, epitrochlearis muscles were incubated in Krebs-Henseleit bicarbonate buffer with or without the addition of the cell-permeable inhibitor of caspase 3, Ac-DEVD-Cho.

14 kDa actin fragment [5] = test: Serum starvation-induced actin cleavage in L6 muscle cells; format: cell-based, rat; conditions: for serum starvation-induced actin cleavage: serum-starved L6 cells, 10 nM hormone added
Method: Physiological conditions trigger caspase 3-mediated actin cleavage . To examine whether a catabolic condition that is known to accelerate protein degradation in muscle cells also involves actin cleavage, L6 muscle cells were activated by 24 h of serum starvation (0.5% FBS) and cell lysates were prepared. […] Additional evidence for involvement of apoptosis-associated pathways was obtained by activating L6 cells using the serum starvation procedure and then adding insulin or IGF I because either hormone can prevent serum starvation induced apoptosis (24,25).

In the case of `Nc1ncnc2c1ncn2[C@@H]1O[C@H](COP(=O)(O)OP(=O)(O)OP(=O)(O)O)[C@@H](O)[C@H]1O` [ATP], the “amount of the 14 kDa peptide vs same extract without added ATP” value (14 kDa actin fragment [1]; 2 mM ATP added to extracts from staurosporine-treated cells, 3 hr, 37° C.) is reported as “significantly reduced”.

For `CC(C)C[C@@H](C=O)NC(=O)[C@H](CC(C)C)NC(=O)[C@H](CC(C)C)NC(=O)OCc1ccccc1` [MG132] (Cbz-Leu-Leu-Leu-aldehyde), the “amount of the 14 kDa actin peptide with proteasome inhibitor in presence of ATP” value (14 kDa actin fragment [1]; MG132 and ATP added to cell extracts before 3 hr incubation at 37° C.) was “greater amounts”, the “14 kDa actin peptide in intact L6 cells activated with staurosporine and treated with proteasome inhibitor” value (14 kDa actin fragment [2]; 24 hr staurosporine plus MG 132) was “readily detected” and the “14 kDa actin fragment in intact L6 cells, agent alone” value (14 kDa actin fragment [2]; L6 cells incubated 24 hr with single agent, then lysed) was “only a small amount”.

With `CN[C@@H]1C[C@H]2O[C@@](C)([C@@H]1OC)n1c3ccccc3c3c4c(c5c6ccccc6n2c5c31)C(=O)NC4` [staurosporine] the activation of apoptosis (L6 muscle cells [3]) was “activates apoptosis”, the “induction of caspase 3 activity” value (caspase 3) was “induces caspase 3 activity” and the “tyrosine release by extracts from staurosporine-treated cells vs control cell extracts” value (L6 muscle cells [4]) was “overall protein degradation is increased; also recorded: significantly higher”.

Ac-DEVD-Cho was tested, and the “reduction of the rate of muscle protein degradation” value (epitrochlearis muscles) was 30%, the “accumulation of the 14 kDa actin fragment after serum starvation” value (14 kDa actin fragment [5]; 24 h serum starvation (0.5% FBS), inhibitor added to cell lysate during incubation) was “blocked the accumulation” and the “appearance of the 14 kDa actin fragment with caspase 3 inhibitor” value (14 kDa actin fragment [1]; extracts of L6 cells treated with 10 nM staurosporine or serum starvation, 5 μM inhibitor for 3 hr) was “blocked the appearance of the actin fragment”.

Arg-Ala was tested, and the “amount of the 14 kDa actin fragment vs incubation with ATP alone” value (14 kDa actin fragment [1]; extracts of staurosporine-exposed L6 cells, 37° C., dipeptide (2 mM) and ATP) was “greater amount”.

IGF I was tested, and the “serum starvation-induced actin cleavage” value (14 kDa actin fragment [5]) was “effectively blocked”.

In the case of insulin, the “serum starvation-induced actin cleavage” value (14 kDa actin fragment [5]) is reported as “effectively blocked”.
